Values quoted from earlier work in US8865699B2, “Amino triazoles as PI3K inhibitors” (Cellzome Ltd., priority 2007, dated 2014).

Key:
[1] = system: collagen II-antibody-induced arthritis; conditions: wildtype mice, oral
[2] = system: lymphocyte-dependent rheumatoid arthritis induced by direct collagen II injection; conditions: mouse, oral
[3] = system: MRL-lpr mouse model of systemic lupus erythematosus (SLE); conditions: intraperitoneal administration
[4] = system: animal model of myocardial infarction; conditions: dosing after myocardial reperfusion (up to 3 hours after)

Compound | clinical and histologic signs of arthritis [1] | joint inflammation and damage [2] | CD4+ T-cell populations [3] | glomerulonephritis [3] | life span [3] | edema and inflammation in response to multiple mediators [4]
O=C1NC(=O)/C(=C\c2ccc3nccnc3c2)S1 [AS-605240] | reduced clinical and histologic signs of collagen II-antibody-induced arthritis | decreased joint inflammation and damage | reduced CD4+ T-cell populations | reduced glomerulonephritis | prolonged life span | 
Nc1nc(N)c2nc(-c3cccc(O)c3)c(-c3cccc(O)c3)nc2n1 [TG100-115] |  |  |  |  |  | potently inhibits edema and inflammation
